{
  "source": "paper PMC4710522",
  "about": "“A Novel Triazolopyridine-Based Spleen Tyrosine Kinase Inhibitor That Arrests Joint Inflammation” (PLoS ONE, 2016)",
  "assay_in_all_cases": "SelectScreen kinase assay",
  "format_in_all_cases": "biochemical",
  "key": {"FGFR3_K650E_h": {"target": "T1, FGFR3_K650E_h (Homo sapiens, UniProt P22607, K650E)", "T1 construct": "purchased Life Technologies (Invitrogen) SelectScreen, Z'-LYTE / Adapta", "settings": "KM ATP, read-out: % control", "in_short": "(§1)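 Single-point inhibition at 3 µM compound. ATP: KM, 10 µM or 100 µM per enzyme as indicated. Output = % control (DMSO = 100%).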"}, "CaMKIV_h": {"target": "T2, CaMKIV_h (Homo sapiens, UniProt Q16566)", "T2 construct": "purchased Life Technologies (Invitrogen) SelectScreen, Z'-LYTE / Adapta", "settings": "KM ATP, read-out: % control", "in_short": "as §1"}, "c-RAF_h": {"target": "T3, c-RAF_h (Homo sapiens, UniProt P04049)", "T3 construct": "purchased Life Technologies (Invitrogen) SelectScreen, Z'-LYTE / Adapta", "settings": "100 µM ATP, read-out: % control", "in_short": "as §1"}, "EGFR_T790M_h": {"target": "T4, EGFR_T790M_h (Homo sapiens, UniProt P00533, T790M)", "T4 construct": "purchased Life Technologies (Invitrogen) SelectScreen, Z'-LYTE / Adapta", "T4 sequence (P00533 25-1210 T790M)": "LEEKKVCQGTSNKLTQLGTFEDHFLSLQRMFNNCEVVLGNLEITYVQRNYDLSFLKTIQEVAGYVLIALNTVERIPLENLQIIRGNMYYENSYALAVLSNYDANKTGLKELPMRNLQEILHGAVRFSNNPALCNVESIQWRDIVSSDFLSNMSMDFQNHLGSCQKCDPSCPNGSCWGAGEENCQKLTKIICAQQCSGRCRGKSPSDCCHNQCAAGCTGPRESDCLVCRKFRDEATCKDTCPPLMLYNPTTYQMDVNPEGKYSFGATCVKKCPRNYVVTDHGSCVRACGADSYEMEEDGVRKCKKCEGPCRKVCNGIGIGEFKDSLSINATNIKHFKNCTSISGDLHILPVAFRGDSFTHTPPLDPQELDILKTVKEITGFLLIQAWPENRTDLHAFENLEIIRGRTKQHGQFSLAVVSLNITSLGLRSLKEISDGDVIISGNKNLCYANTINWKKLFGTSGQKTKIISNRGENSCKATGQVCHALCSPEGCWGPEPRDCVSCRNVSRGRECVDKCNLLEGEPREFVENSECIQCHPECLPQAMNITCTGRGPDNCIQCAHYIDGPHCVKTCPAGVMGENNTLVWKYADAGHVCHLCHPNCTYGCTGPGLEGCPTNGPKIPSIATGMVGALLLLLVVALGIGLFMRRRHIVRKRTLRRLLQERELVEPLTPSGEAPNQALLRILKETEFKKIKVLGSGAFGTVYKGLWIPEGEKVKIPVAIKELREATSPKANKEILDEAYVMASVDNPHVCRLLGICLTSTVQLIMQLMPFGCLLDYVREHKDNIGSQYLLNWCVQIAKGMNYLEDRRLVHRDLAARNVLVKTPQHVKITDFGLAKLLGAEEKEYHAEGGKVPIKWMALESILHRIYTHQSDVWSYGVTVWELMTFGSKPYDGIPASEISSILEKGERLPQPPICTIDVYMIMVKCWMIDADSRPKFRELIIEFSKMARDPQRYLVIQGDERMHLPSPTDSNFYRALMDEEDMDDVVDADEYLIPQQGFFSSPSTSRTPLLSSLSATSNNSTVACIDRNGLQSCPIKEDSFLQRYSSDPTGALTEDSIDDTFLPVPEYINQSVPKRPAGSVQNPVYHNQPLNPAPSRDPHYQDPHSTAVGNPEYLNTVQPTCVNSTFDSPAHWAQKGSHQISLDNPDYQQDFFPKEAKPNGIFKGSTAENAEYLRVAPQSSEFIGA", "settings": "KM ATP, read-out: % control", "in_short": "as §1"}, "Fms_h": {"target": "Fms_h (Homo sapiens, UniProt P07333)", "sequence (P07333 20-972)": "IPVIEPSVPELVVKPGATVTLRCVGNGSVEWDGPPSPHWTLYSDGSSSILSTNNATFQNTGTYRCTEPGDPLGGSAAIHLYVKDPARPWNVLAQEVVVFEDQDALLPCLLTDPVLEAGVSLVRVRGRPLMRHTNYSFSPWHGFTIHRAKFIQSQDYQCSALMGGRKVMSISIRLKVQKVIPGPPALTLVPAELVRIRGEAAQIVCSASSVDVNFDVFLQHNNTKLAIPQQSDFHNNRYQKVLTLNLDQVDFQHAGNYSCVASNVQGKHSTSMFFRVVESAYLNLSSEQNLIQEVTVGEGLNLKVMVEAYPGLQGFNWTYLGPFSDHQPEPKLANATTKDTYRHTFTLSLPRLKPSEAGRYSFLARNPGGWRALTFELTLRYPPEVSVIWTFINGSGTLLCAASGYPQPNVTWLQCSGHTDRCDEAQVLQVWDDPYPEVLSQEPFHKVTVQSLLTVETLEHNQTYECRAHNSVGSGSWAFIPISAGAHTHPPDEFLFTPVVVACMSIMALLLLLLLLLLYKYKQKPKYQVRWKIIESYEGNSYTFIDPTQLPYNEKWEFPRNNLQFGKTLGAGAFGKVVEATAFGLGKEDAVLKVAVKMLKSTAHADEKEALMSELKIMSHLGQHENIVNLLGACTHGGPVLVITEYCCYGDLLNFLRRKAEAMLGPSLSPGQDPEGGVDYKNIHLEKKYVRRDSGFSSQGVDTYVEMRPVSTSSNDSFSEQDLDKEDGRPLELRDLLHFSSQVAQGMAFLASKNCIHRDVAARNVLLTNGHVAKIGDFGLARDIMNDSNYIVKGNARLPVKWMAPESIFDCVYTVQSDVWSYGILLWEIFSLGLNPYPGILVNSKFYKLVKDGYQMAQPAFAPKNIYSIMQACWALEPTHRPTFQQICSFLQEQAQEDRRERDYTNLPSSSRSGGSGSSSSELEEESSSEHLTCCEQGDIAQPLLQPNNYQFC", "in_short": "as §1"}, "KDR_h": {"target": "KDR_h (Homo sapiens, UniProt P35968)", "sequence (P35968 20-1356)": "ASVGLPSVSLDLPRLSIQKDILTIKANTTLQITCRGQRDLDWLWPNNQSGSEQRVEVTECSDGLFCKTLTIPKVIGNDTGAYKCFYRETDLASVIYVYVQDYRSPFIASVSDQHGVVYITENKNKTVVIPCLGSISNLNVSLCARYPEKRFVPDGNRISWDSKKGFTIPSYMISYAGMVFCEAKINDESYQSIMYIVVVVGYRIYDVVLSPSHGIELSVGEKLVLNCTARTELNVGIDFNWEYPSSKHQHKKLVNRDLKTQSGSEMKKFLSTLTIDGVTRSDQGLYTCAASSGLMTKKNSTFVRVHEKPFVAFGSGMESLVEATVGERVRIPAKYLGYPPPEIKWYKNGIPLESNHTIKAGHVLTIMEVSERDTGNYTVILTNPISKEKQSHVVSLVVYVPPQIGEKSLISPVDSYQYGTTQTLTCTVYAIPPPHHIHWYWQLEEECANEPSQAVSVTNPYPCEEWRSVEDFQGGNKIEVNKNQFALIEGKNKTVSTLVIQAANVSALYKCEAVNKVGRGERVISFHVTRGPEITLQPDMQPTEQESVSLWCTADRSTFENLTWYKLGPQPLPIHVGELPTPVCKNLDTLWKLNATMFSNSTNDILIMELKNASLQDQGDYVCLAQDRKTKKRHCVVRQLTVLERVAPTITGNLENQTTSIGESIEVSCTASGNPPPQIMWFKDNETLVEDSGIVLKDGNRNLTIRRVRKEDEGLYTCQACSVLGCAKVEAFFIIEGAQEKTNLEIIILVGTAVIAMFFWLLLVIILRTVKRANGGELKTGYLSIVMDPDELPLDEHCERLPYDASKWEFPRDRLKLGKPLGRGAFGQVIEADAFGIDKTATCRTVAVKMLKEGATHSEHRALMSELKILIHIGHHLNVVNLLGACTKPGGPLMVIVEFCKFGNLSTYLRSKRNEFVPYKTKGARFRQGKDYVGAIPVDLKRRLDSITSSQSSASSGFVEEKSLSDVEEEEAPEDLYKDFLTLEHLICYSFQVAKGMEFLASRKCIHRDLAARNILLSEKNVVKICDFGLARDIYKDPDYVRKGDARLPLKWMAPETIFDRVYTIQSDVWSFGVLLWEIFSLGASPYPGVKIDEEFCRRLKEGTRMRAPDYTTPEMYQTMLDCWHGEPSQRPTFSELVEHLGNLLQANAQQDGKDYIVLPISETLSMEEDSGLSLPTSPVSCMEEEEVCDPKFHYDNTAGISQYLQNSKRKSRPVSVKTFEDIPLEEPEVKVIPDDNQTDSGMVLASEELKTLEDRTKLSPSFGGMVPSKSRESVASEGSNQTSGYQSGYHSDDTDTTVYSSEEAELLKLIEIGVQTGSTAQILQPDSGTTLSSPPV", "in_short": "as §1"}, "HIPK2_h": {"target": "T5, HIPK2_h (Homo sapiens, UniProt Q9H2X6)", "T5 construct": "purchased Life Technologies (Invitrogen) SelectScreen, Z'-LYTE / Adapta", "settings": "KM ATP, read-out: % control", "in_short": "as §1"}, "Fes_h": {"target": "T6, Fes_h (Homo sapiens, UniProt P07332)", "T6 construct": "purchased Life Technologies (Invitrogen) SelectScreen, Z'-LYTE / Adapta", "settings": "KM ATP, read-out: % control", "in_short": "as §1"}, "TBK1_h": {"target": "T7, TBK1_h (Homo sapiens, UniProt Q9UHD2)", "T7 construct": "purchased Life Technologies (Invitrogen) SelectScreen, Z'-LYTE / Adapta", "settings": "KM ATP, read-out: % control", "in_short": "as §1"}, "JNK1-alpha1_h": {"target": "T8, JNK1-alpha1_h (Homo sapiens, UniProt P45983)", "T8 construct": "purchased Life Technologies (Invitrogen) SelectScreen, Z'-LYTE / Adapta", "settings": "100 µM ATP, read-out: % control", "in_short": "as §1"}, "PKC-theta_h": {"target": "T9, PKC-theta_h (Homo sapiens, UniProt Q04759)", "T9 construct": "purchased Life Technologies (Invitrogen) SelectScreen, Z'-LYTE / Adapta", "settings": "KM ATP, read-out: % control", "in_short": "as §1"}, "PDGFR-alpha_T674I_h": {"target": "T10, PDGFR-alpha_T674I_h (Homo sapiens, UniProt P16234, T674I)", "T10 construct": "purchased Life Technologies (Invitrogen) SelectScreen, Z'-LYTE / Adapta", "settings": "KM ATP, read-out: % control", "in_short": "as §1"}, "MEK1_h": {"target": "T11, MEK1_h (Homo sapiens, UniProt Q02750)", "T11 construct": "purchased Life Technologies (Invitrogen) SelectScreen, Z'-LYTE / Adapta", "settings": "100 µM ATP, read-out: % control", "in_short": "as §1"}, "MRCK-beta_h": {"target": "T12, MRCK-beta_h (Homo sapiens, UniProt Q9Y5S2)", "T12 construct": "purchased Life Technologies (Invitrogen) SelectScreen, Z'-LYTE / Adapta", "settings": "KM ATP, read-out: % control", "in_short": "as §1"}, "PAK1_h": {"target": "T13, PAK1_h (Homo sapiens, UniProt Q13153)", "T13 construct": "purchased Life Technologies (Invitrogen) SelectScreen, Z'-LYTE / Adapta", "settings": "KM ATP, read-out: % control", "in_short": "as §1"}, "Plk1_h": {"target": "T14, Plk1_h (Homo sapiens, UniProt P53350)", "T14 construct": "purchased Life Technologies (Invitrogen) SelectScreen, Z'-LYTE / Adapta", "settings": "KM ATP, read-out: % control", "in_short": "as §1"}, "Rsk2_h": {"target": "T15, Rsk2_h (Homo sapiens, UniProt P51812)", "T15 construct": "purchased Life Technologies (Invitrogen) SelectScreen, Z'-LYTE / Adapta", "settings": "KM ATP, read-out: % control", "in_short": "as §1"}, "Ret_h": {"target": "Ret_h (Homo sapiens, UniProt P07949)", "sequence (P07949 29-1114)": "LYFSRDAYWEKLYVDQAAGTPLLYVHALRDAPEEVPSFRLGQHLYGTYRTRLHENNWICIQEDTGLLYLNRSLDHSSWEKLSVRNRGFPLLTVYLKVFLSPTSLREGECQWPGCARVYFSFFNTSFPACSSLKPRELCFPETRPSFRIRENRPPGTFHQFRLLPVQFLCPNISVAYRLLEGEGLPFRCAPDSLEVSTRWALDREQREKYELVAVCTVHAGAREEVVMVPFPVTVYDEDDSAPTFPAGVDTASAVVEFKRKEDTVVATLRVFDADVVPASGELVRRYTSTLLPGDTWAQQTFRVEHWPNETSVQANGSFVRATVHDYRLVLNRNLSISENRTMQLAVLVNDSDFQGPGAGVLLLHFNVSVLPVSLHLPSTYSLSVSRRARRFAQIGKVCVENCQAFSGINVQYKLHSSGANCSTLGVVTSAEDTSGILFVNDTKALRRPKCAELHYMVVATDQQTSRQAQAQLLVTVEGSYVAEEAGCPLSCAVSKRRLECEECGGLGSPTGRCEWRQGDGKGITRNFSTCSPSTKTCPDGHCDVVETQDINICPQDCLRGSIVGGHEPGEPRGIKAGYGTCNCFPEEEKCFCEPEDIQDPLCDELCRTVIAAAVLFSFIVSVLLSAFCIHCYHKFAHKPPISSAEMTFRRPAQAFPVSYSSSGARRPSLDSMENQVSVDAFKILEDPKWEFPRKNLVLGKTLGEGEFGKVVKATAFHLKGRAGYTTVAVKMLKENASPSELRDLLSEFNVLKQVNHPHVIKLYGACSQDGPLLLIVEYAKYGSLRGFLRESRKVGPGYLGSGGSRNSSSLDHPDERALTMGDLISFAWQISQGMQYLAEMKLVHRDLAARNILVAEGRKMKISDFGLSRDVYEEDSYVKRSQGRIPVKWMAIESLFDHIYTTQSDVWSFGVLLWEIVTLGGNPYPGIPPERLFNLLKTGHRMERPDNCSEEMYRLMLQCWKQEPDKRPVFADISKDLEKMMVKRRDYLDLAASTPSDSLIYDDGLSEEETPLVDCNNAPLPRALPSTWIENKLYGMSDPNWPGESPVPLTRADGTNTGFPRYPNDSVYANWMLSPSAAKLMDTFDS", "in_short": "as §1"}, "EphA4_h": {"target": "T16, EphA4_h (Homo sapiens, UniProt P54764)", "T16 construct": "purchased Life Technologies (Invitrogen) SelectScreen, Z'-LYTE / Adapta", "settings": "KM ATP, read-out: % control", "in_short": "as §1"}, "JNK3_h": {"target": "T17, JNK3_h (Homo sapiens, UniProt P53779)", "T17 construct": "purchased Life Technologies (Invitrogen) SelectScreen, Z'-LYTE / Adapta", "T17 sequence (P53779 whole entry)": "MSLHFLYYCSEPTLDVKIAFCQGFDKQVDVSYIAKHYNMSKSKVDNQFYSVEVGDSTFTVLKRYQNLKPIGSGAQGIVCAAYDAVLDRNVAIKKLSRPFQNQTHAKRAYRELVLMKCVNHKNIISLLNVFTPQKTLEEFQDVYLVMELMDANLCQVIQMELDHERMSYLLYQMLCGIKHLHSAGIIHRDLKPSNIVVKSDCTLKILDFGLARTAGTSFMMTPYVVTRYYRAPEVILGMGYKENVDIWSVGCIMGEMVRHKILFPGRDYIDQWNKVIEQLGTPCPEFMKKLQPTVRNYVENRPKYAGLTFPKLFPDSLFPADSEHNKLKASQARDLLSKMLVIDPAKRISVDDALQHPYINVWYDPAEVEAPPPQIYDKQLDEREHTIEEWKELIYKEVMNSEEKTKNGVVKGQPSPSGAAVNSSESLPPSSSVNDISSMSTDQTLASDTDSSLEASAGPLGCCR", "settings": "100 µM ATP, read-out: % control", "in_short": "as §1"}, "IR_h": {"target": "T18, IR_h (Homo sapiens, UniProt P06213)", "T18 construct": "purchased Life Technologies (Invitrogen) SelectScreen, Z'-LYTE / Adapta", "settings": "KM ATP, read-out: % control", "in_short": "as §1"}, "PRK1_h": {"target": "T19, PRK1_h (Homo sapiens, UniProt Q16512)", "T19 construct": "purchased Life Technologies (Invitrogen) SelectScreen, Z'-LYTE / Adapta", "settings": "KM ATP, read-out: % control", "in_short": "as §1"}, "MST4_h": {"target": "T20, MST4_h (Homo sapiens, UniProt Q9P289)", "T20 construct": "purchased Life Technologies (Invitrogen) SelectScreen, Z'-LYTE / Adapta", "settings": "KM ATP, read-out: % control", "in_short": "as §1"}, "cSRC-N1_h": {"target": "T21, cSRC-N1_h (Homo sapiens, UniProt P12931)", "T21 construct": "purchased Life Technologies (Invitrogen) SelectScreen, Z'-LYTE / Adapta", "settings": "KM ATP, read-out: % control", "in_short": "as §1"}, "MATK_h": {"target": "T22, MATK_h (Homo sapiens, UniProt P42679)", "T22 construct": "purchased Life Technologies (Invitrogen) SelectScreen, Z'-LYTE / Adapta", "settings": "KM ATP, read-out: % control", "in_short": "as §1"}, "MARK2_h": {"target": "T23, MARK2_h (Homo sapiens, UniProt Q7KZI7)", "T23 construct": "purchased Life Technologies (Invitrogen) SelectScreen, Z'-LYTE / Adapta", "settings": "KM ATP, read-out: % control", "in_short": "as §1"}, "MARK4_h": {"target": "T24, MARK4_h (Homo sapiens, UniProt Q96L34)", "T24 construct": "purchased Life Technologies (Invitrogen) SelectScreen, Z'-LYTE / Adapta", "settings": "KM ATP, read-out: % control", "in_short": "as §1"}, "DYR1A_h": {"target": "T25, DYR1A_h (Homo sapiens, UniProt Q13627)", "T25 construct": "purchased Life Technologies (Invitrogen) SelectScreen, Z'-LYTE / Adapta", "settings": "KM ATP, read-out: % control", "in_short": "as §1"}, "IRAK4_h": {"target": "T26, IRAK4_h (Homo sapiens, UniProt Q9NWZ3)", "T26 construct": "purchased Life Technologies (Invitrogen) SelectScreen, Z'-LYTE / Adapta", "settings": "KM ATP, read-out: % control", "in_short": "as §1"}, "PRKG1_h": {"target": "T27, PRKG1_h (Homo sapiens, UniProt Q13976)", "T27 construct": "purchased Life Technologies (Invitrogen) SelectScreen, Z'-LYTE / Adapta", "settings": "KM ATP, read-out: % control", "in_short": "as §1"}, "PKA_h": {"target": "T28, PKA_h (Homo sapiens, UniProt P17612)", "T28 construct": "purchased Life Technologies (Invitrogen) SelectScreen, Z'-LYTE / Adapta", "settings": "KM ATP, read-out: % control", "in_short": "as §1"}, "AMPK_A2_B1_G1_h": {"target": "T29, AMPK_A2_B1_G1_h (Homo sapiens, UniProt P54646)", "T29 construct": "purchased Life Technologies (Invitrogen) SelectScreen, Z'-LYTE / Adapta", "settings": "KM ATP, read-out: % control", "in_short": "as §1"}, "IKBKE_h": {"target": "T30, IKBKE_h (Homo sapiens, UniProt Q14164)", "T30 construct": "purchased Life Technologies (Invitrogen) SelectScreen, Z'-LYTE / Adapta", "settings": "KM ATP, read-out: % control", "in_short": "as §1"}, "[1]": {"settings": "3 µM, KM ATP, read-out: % control"}, "[2]": {"settings": "10-point dose-response, commercial vendor"}},
  "data": [
    {"smiles": "c1cc(CC2CCOCC2)n2nc(Nc3ccc4c(NC5CCOCC5)n[nH]c4c3)nc2c1", "note": "[CC-509, [3-(2H-3,4,5,6-tetrahydropyran-4-ylamino)(1H-indazol-6-yl)][5-(2H-3,4,5,6-tetrahydropyran-4-ylmethyl)(2H-1,2,4-triazolo[1,5-a]pyridin-2-yl)]amine]", "values": [
      {"measurement": "remaining activity at 3 µM", "setting": "FGFR3_K650E_h", "value": 54, "unit": "%"},
      {"measurement": "remaining activity at 3 µM", "setting": "CaMKIV_h", "value": 100, "unit": "%"},
      {"measurement": "remaining activity at 3 µM", "setting": "c-RAF_h", "value": 70, "unit": "%"},
      {"measurement": "remaining activity at 3 µM", "setting": "EGFR_T790M_h", "value": 54, "unit": "%"},
      {"measurement": "remaining activity at 3 µM", "setting": "Fms_h; [1]", "value": 2, "unit": "%"},
      {"measurement": "IC50", "setting": "Fms_h; [2]", "value": 8.61, "unit": "nM"},
      {"measurement": "remaining activity at 3 µM", "setting": "KDR_h; [1]", "value": 3, "unit": "%"},
      {"measurement": "IC50", "setting": "KDR_h; [2]", "value": 185, "unit": "nM"},
      {"measurement": "remaining activity at 3 µM", "setting": "HIPK2_h", "value": 96, "unit": "%"},
      {"measurement": "remaining activity at 3 µM", "setting": "Fes_h", "value": 53, "unit": "%"},
      {"measurement": "remaining activity at 3 µM", "setting": "TBK1_h", "value": 10, "unit": "%"},
      {"measurement": "remaining activity at 3 µM", "setting": "JNK1-alpha1_h", "value": 88, "unit": "%"},
      {"measurement": "remaining activity at 3 µM", "setting": "PKC-theta_h", "value": 78, "unit": "%"},
      {"measurement": "remaining activity at 3 µM", "setting": "PDGFR-alpha_T674I_h", "value": 80, "unit": "%"},
      {"measurement": "remaining activity at 3 µM", "setting": "MEK1_h", "value": 65, "unit": "%"},
      {"measurement": "remaining activity at 3 µM", "setting": "MRCK-beta_h", "value": 94, "unit": "%"},
      {"measurement": "remaining activity at 3 µM", "setting": "PAK1_h", "value": 94, "unit": "%"},
      {"measurement": "remaining activity at 3 µM", "setting": "Plk1_h", "value": 88, "unit": "%"},
      {"measurement": "remaining activity at 3 µM", "setting": "Rsk2_h", "value": 49, "unit": "%"},
      {"measurement": "remaining activity at 3 µM", "setting": "Ret_h; [1]", "value": 13, "unit": "%"},
      {"measurement": "IC50", "setting": "Ret_h; [2]", "value": 397, "unit": "nM"},
      {"measurement": "remaining activity at 3 µM", "setting": "EphA4_h", "value": 76, "unit": "%"},
      {"measurement": "remaining activity at 3 µM", "setting": "JNK3_h", "value": 94, "unit": "%"},
      {"measurement": "remaining activity at 3 µM", "setting": "IR_h", "value": 91, "unit": "%"},
      {"measurement": "remaining activity at 3 µM", "setting": "PRK1_h", "value": 60, "unit": "%"},
      {"measurement": "remaining activity at 3 µM", "setting": "MST4_h", "value": 99, "unit": "%"},
      {"measurement": "remaining activity at 3 µM", "setting": "cSRC-N1_h", "value": 58, "unit": "%"},
      {"measurement": "remaining activity at 3 µM", "setting": "MATK_h", "value": 102, "unit": "%"},
      {"measurement": "remaining activity at 3 µM", "setting": "MARK2_h", "value": 55, "unit": "%"},
      {"measurement": "remaining activity at 3 µM", "setting": "MARK4_h", "value": 33, "unit": "%"},
      {"measurement": "remaining activity at 3 µM", "setting": "DYR1A_h", "value": 99, "unit": "%"},
      {"measurement": "remaining activity at 3 µM", "setting": "IRAK4_h", "value": 94, "unit": "%"},
      {"measurement": "remaining activity at 3 µM", "setting": "PRKG1_h", "value": 96, "unit": "%"},
      {"measurement": "remaining activity at 3 µM", "setting": "PKA_h", "value": 93, "unit": "%"},
      {"measurement": "remaining activity at 3 µM", "setting": "AMPK_A2_B1_G1_h", "value": 63, "unit": "%"},
      {"measurement": "remaining activity at 3 µM", "setting": "IKBKE_h", "value": 67, "unit": "%"}
    ]}
  ]
}
